The target of test [1] is T1, ACC1 (Homo sapiens, UniProt Q13085).
T1 construct: to produce a full length ACC1 cDNA clone; V5-His (vector pcDNA5/FRT/V5-His TOPO) (C); made in house; host or cells: Sf9 insect cells (baculovirus, pBacPAK9)
As to the kind of experiment: 14CO2 fixation ACC activity assay, ACC1. Format: biochemical. The note with it: 37° C., 40 minutes, pH 7.5, 20 mM citrate; read-out: Km of ACC1 against substrate. The method, then:
ACC1 clone from Example 2 was digested with AvrII and PmeI restriction enzymes and then subcloned into pBacPAK9 (BD Biosciences, Mountainview, Calif.) transfer vector, which was then digested with XbaI and StuI for generating baculovirus. The viral particles were generated in Sf9 insect cells using the reagents and instructions provided by the BacPAK Baculovirus Expression System (BD Biosciences, Mountainview, Calif.).
The Sf9 cells were grown in Grace's Insect Cell Culture Medium (Invitrogen, Carlsbad, Calif.) containing 10% fetal bovine serum, 0.1 mg/ml kanamicin, and 0.1% PLURONIC® F-68 (Invitrogen, Carlsbad, Calif.) at 30° C. and 5% CO2. […]
(§1) The following protein extraction and purification procedures were performed at 4° C. unless noted. […] The remaining proteins were eluted from the column by imidazole at 0–500 mM, and the elution fractions were monitored by spectrophotometry at 280 nm. ACC1, ACC2, and ACC2sv1 protein and activity in each fraction were measured.
(§2) ACC1, ACC2, and ACC2sv1 activity were measured by a standard ^14CO2 fixation assay that measures the incorporation of [^14C]bicarbonate into [^14C]malonyl-CoA, and separates the product from unused substrate at the end of the reaction through acidification, which serves to both quench the reaction and remove residual radiolabeled substrate as ^14CO2. […]

In test [2] the target is T2, ACC2 (Homo sapiens, UniProt O00763).
T2 construct: V5-His (vector pcDNA5/FRT/V5-His TOPO) (C); made in house; host or cells: mouse mammary carcinoma cell line FM-3A (pEF vector, G418 selection)
T2 sequence (O00763 whole entry): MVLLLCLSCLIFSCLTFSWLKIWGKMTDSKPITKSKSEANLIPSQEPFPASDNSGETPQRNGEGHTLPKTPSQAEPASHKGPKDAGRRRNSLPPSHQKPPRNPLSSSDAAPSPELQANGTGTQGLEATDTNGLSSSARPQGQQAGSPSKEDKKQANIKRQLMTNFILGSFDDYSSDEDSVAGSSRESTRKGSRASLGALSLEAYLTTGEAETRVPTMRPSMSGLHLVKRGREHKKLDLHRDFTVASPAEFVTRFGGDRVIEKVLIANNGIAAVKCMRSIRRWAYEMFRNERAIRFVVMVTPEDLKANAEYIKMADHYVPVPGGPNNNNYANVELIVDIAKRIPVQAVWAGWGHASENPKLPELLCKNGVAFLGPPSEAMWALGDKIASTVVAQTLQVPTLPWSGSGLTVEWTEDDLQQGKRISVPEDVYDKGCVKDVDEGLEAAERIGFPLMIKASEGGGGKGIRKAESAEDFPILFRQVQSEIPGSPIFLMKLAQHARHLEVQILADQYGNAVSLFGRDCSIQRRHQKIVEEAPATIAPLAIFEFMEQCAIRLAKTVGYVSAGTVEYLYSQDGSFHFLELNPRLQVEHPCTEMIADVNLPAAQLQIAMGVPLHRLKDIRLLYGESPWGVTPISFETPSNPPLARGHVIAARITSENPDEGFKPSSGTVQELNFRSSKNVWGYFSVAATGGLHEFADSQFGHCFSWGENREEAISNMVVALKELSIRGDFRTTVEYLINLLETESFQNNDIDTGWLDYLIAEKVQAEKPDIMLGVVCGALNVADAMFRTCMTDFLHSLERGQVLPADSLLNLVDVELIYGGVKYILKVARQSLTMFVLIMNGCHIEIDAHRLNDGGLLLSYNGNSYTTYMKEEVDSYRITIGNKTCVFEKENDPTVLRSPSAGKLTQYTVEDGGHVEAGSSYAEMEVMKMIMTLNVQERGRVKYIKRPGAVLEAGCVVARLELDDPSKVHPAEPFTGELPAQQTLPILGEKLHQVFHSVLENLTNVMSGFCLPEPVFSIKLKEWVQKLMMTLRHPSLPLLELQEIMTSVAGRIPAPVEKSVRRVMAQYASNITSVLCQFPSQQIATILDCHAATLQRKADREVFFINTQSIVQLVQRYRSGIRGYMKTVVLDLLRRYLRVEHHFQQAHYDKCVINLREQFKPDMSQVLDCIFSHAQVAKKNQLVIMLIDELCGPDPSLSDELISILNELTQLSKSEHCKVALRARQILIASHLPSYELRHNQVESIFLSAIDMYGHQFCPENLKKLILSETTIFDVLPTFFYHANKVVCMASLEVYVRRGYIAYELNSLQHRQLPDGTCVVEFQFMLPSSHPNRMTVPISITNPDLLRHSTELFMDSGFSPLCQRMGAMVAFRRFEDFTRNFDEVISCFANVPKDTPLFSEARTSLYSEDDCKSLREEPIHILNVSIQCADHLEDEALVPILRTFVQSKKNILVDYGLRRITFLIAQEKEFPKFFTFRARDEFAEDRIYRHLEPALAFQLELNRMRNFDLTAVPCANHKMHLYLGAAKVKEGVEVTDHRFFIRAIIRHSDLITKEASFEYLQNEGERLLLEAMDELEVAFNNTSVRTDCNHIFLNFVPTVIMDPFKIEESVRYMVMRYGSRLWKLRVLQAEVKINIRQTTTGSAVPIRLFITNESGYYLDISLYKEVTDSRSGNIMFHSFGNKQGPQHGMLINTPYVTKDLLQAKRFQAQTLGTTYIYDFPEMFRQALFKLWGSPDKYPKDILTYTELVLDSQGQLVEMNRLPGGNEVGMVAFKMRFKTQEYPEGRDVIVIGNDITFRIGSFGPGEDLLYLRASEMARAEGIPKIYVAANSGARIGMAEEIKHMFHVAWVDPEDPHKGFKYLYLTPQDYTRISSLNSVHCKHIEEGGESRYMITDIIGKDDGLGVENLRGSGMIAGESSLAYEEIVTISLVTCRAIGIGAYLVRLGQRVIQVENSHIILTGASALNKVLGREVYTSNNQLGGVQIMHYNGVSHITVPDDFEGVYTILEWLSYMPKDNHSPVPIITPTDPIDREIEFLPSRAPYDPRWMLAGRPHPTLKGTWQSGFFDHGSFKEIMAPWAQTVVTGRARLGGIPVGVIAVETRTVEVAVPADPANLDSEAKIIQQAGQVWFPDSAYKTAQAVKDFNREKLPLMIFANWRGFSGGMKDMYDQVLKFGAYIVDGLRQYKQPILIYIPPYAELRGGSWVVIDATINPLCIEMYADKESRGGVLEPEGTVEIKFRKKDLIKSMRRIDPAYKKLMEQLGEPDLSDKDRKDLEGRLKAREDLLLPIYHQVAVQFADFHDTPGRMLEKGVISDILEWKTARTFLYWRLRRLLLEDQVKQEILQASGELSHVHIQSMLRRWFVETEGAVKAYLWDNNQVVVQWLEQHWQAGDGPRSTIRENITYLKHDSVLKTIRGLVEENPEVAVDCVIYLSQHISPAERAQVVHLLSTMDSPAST
Put plainly: 14CO2 fixation ACC activity assay, ACC2. Format: biochemical. To be noted: 37° C., 40 minutes, pH 7.5, 20 mM citrate; read-out: Km of ACC2 against substrate.
Text: (§3) ACC2 and ACC2sv1 clones from cloning Method 2 of Example 2 were digested with AvrII and PmeI restriction enzymes and then subcloned into pEF cDNA expression vector (Invitrogen, Carlsbad, Calif.) which was digested by SpeI and EcoRV. The ACC2 and ACC2sv1 expression vectors were introduced into a mouse mammary carcinoma cell line FM-3A (RIKEN cell bank, #RCB0086) using the Lipofectaimine 2000 (Invitrogen, Carlsbad, Calif.) or Effectene Transfection Reagent (Qiagen, Hilden, Germany), according to manufacturer's instructions. […] ACC2 and ACC2sv1 protein levels were measured by Western blot analysis using HRP-conjugated streptavidin (Invitrogen, Carlsbad, Calif.). […]
as §1, §2

Test [3] has as its target T3, ACC2sv1 (Homo sapiens, UniProt O00763, V2141I).
T3 construct: to yield a full-length ACC2sv1 clone; made in house; host or cells: mouse mammary carcinoma cell line FM-3A (pEF vector, G418 selection)
Put plainly: 14CO2 fixation ACC activity assay, ACC2sv1. In kind it is biochemical. To be noted: 37° C., 40 minutes, pH 7.5, 20 mM citrate; read-out: Km of ACC2sv1 against substrate.
Text: as §3, §1, §2

Test [4] has as its system ACC1. To be noted: cited from earlier work.
The subject of test [5] is ACC2. To be noted: cited from earlier work.
Test [6] relates to ACC. To be noted: ESP 55016 converted to ESP 55016-CoA; cited from earlier work.
The conditions of test [7]: rat model of diabetic dyslipidemia; cited from earlier work.
In test [8] the test system is fatty acid synthesis and fatty acid oxidation. The note with it: cited from earlier work.
Test [9] concerns ACCs from plants. To be noted: cited from earlier work.

T3 sequence (O00763 1-2256 isoform O00763-3 V1939I): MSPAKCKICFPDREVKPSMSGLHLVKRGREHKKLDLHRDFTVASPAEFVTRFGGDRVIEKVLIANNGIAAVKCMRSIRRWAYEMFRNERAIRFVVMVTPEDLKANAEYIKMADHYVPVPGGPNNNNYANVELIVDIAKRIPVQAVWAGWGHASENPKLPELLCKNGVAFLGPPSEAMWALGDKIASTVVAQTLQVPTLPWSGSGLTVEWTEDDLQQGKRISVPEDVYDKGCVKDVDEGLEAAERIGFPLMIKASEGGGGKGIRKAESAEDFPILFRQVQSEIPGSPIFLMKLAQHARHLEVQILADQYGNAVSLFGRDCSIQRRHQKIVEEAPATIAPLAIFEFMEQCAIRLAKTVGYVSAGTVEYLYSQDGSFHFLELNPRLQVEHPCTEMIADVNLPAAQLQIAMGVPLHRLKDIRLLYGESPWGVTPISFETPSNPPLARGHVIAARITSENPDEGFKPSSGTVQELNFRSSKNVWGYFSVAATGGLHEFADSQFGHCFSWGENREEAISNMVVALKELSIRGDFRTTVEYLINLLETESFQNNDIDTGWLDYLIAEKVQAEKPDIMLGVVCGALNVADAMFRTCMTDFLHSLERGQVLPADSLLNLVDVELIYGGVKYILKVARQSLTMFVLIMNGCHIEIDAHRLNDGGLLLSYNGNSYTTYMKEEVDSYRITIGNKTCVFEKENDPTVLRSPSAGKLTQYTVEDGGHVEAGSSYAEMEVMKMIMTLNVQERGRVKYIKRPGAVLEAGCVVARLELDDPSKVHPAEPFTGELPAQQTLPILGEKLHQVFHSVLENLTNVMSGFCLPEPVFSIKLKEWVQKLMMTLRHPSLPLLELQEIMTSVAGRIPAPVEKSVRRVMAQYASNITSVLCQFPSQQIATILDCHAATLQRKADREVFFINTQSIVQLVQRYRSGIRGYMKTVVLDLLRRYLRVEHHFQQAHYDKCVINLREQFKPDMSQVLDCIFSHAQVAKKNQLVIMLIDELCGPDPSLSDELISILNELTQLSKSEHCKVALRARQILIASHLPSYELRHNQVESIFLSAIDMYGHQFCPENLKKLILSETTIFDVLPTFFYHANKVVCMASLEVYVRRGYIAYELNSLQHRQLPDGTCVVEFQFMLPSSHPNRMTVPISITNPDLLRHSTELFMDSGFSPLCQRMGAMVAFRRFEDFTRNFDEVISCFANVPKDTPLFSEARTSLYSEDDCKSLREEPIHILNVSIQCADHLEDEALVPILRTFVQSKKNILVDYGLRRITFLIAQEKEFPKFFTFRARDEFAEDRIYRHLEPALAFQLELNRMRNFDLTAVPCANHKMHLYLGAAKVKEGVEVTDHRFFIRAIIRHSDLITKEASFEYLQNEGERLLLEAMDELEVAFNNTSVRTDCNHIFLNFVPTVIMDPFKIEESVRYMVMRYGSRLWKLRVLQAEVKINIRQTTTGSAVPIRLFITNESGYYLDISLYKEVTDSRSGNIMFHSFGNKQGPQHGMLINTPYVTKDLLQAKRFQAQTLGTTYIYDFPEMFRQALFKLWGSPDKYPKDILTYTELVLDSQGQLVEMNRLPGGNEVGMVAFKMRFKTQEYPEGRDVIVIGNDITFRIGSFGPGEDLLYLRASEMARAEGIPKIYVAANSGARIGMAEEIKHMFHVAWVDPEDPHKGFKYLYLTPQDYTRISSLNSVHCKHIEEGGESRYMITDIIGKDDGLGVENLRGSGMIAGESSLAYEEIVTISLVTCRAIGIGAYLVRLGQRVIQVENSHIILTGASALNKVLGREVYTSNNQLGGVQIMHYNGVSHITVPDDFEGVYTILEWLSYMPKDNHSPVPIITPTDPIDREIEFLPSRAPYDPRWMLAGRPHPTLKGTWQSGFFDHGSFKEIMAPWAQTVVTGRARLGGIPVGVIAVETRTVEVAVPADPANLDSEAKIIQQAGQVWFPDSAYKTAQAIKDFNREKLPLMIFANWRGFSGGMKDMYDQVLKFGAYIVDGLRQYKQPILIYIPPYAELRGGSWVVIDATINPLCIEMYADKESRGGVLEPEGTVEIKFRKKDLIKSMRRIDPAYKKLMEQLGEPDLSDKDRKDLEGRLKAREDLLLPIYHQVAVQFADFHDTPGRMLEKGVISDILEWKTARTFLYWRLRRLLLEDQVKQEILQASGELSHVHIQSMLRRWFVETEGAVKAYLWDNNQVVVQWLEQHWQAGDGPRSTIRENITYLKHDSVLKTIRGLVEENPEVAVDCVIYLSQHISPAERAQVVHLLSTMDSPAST

As usually defined, the Km is the substrate concentration at which the rate is half of its maximum. Take `Nc1ncnc2c1ncn2[C@@H]1O[C@H](COP(=O)(O)OP(=O)(O)OP(=O)(O)O)[C@@H](O)[C@H]1O` [ATP]: the Km in [1] is 54 µM; in test [2], 44 µM; in test [3], 109 µM.

For the compound `CCN(CC)C(=O)[C@@H]1CCCN(C2CCN(C(=O)c3c4ccccc4cc4ccccc34)CC2)C1` [CP-610431], the “Inhibition of ACC1” value in [4] is listed as “inhibit”. For the same compound, the “Inhibition of ACC2” value in [5] is recorded as “inhibit”.

Turning to `O=C(c1c2ccccc2cc2ccccc12)N1CCC(N2CCC[C@@H](C(=O)N3CCOCC3)C2)CC1` [CP-640186], the “Inhibition of ACC1” value in test [4] was “inhibit”. Moreover, the “Inhibition of ACC2” value in test [5] is reported as “inhibit”.

For `CC(C)(CCCCCC(O)CCCCCC(C)(C)C(=O)SCCNC(=O)CCNC(=O)[C@H](O)C(C)(C)COP(=O)(O)OP(=O)(O)OC[C@H]1O[C@@H](n2cnc3c(N)ncnc32)[C@H](O)[C@@H]1OP(=O)(O)O)C(=O)O` (some centres unmarked) [ESP 55016-CoA], in test [6], the “Inhibition of ACC activity” value was “directly inhibits”.

As for `CC(C)(CCCCCC(O)CCCCCC(C)(C)C(=O)O)C(=O)O` [ESP 55016], the Serum lipid levels result in [7] was “favorably alter”. Besides, in test [8], the Fatty acid oxidation entry was “enhanced” and the Fatty acid synthesis result is “inhibited”.

As for `O=C(O)O` [HCO3], the values for the Km in [1], in [2] and in test [3] were 6470 µM, 2890 µM and 6510 µM, respectively.

Regarding `CC(Oc1ccc(Oc2ccc(Cl)cc2Cl)cc1)C(=O)O` (centres unmarked) [diclofop], the “Inhibition of ACCs from plants” value in test [9] is “potent inhibitors”.

Turning to `CC(Oc1ccc(Oc2ncc(C(F)(F)F)cc2Cl)cc1)C(=O)O` (centres unmarked) [haloxyfop], the “Inhibition of ACCs from plants” value in test [9] is listed as “potent inhibitors”.

As for `CCC/C(=N\OCC)C1=C(O)CC(CC(C)SCC)CC1=O` (centres unmarked) [sethoxydim], the “Inhibition of ACCs from plants” value in test [9] is listed as “potent inhibitors”.

The values above are taken from US7150969B2 (Rosetta Inpharmatics LLC, priority 2004, dated 2006).
